Laboratory results as given in publication PMC5831858, “Pharmacological characterisation of CR6086, a potent prostaglandin E2 receptor 4 antagonist, as a new potential disease-modifying anti-rheumatic drug” (Arthritis Research & Therapy, 2018).
Read-outs that look alike come from different tables or passages of the source.

Tests used:
[1] = molecular target: GAL2 (Homo sapiens, UniProt O43603); assay: Galanin receptor GAL2 binding; conditions: [^125I]galanin, Human recombinant CHO cells, read-out: CR6086 Activity at 10µM
Chain of GAL2 (O43603 whole entry): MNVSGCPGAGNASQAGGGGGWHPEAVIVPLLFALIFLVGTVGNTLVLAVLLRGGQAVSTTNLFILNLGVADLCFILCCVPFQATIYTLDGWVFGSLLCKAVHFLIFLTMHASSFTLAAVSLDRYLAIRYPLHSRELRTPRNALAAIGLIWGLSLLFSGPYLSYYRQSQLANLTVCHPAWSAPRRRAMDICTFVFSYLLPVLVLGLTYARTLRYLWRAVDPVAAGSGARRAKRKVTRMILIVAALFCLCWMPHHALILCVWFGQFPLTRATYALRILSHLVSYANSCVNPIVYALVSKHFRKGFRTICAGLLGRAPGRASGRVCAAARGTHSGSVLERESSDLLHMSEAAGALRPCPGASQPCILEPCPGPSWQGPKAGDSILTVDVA

[2] = molecular target: M5 (Homo sapiens, UniProt P08912); assay: Muscarinic acetylcholine receptor M5 binding; conditions: [^3H]4-DAMP, Human recombinant CHO cells, read-out: CR6086 Activity at 10µM
Chain of M5 (P08912 whole entry): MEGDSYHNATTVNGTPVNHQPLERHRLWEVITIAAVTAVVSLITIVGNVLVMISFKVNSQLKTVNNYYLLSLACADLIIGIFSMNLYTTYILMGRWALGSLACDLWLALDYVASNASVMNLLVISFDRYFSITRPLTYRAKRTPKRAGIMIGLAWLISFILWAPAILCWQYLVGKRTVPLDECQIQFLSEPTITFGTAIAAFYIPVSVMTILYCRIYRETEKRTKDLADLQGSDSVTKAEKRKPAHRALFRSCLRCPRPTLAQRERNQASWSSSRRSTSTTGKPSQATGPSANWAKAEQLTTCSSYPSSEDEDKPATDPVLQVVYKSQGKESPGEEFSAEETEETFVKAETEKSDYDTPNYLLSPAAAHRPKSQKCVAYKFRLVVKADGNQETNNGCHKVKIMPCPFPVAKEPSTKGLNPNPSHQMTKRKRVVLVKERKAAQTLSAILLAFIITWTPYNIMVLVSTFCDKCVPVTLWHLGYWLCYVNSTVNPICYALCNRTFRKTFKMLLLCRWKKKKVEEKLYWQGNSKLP

[3] = molecular target: D5 (Homo sapiens, UniProt P21918); assay: Dopamine receptor D5 binding; conditions: [^3H]SCH 23390, Human recombinant GH4 cells, read-out: CR6086 Activity at 10µM
[4] = molecular target: D1 (Homo sapiens, UniProt P21728); assay: Dopamine receptor D1 binding; conditions: [^3H]SCH 23390, Human recombinant CHO cells, read-out: CR6086 Activity at 10µM
Chain of D1 (P21728 whole entry): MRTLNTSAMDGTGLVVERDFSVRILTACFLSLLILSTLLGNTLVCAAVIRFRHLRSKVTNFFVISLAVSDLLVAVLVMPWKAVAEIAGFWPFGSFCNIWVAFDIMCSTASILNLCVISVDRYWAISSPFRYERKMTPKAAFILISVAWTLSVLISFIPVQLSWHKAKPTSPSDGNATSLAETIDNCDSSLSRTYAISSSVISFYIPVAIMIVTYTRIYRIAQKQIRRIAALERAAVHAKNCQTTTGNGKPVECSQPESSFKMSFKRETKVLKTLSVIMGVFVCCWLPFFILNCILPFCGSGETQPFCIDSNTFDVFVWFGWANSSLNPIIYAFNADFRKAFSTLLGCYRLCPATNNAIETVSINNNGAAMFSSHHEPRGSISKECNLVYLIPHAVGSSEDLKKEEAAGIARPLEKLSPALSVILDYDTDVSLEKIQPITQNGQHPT

[5] = system: BB (non-selective); assay: BB receptor (non-selective) binding; conditions: [^125I][Tyr^4]bombesin, Rat cerebral cortex
[6] = molecular target: D3 (Homo sapiens, UniProt P35462); assay: Dopamine receptor D3 binding; conditions: [^3H]methyl-spiperone, Human recombinant CHO cells, read-out: CR6086 Activity at 10µM
Chain of D3 (P35462 whole entry): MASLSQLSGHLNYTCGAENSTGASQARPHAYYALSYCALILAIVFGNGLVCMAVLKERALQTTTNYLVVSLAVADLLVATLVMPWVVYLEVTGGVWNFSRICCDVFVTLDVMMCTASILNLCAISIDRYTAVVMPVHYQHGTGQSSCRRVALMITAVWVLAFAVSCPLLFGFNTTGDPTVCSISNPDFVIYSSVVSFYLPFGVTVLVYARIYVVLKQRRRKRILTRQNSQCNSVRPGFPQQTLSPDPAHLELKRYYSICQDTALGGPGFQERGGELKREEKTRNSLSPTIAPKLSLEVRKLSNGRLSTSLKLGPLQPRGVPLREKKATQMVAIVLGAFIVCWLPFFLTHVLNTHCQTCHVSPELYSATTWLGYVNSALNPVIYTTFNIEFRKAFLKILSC

[7] = molecular target: CysLT2 (Cys-LTs) (Homo sapiens, UniProt Q9NS75); assay: Eicosanoid receptor CysLT2 binding; conditions: [^3H]LTD4, HEK-293 cells, read-out: CR6086 Activity at 10µM
Chain of CysLT2 (Cys-LTs) (Q9NS75 whole entry, species assumed): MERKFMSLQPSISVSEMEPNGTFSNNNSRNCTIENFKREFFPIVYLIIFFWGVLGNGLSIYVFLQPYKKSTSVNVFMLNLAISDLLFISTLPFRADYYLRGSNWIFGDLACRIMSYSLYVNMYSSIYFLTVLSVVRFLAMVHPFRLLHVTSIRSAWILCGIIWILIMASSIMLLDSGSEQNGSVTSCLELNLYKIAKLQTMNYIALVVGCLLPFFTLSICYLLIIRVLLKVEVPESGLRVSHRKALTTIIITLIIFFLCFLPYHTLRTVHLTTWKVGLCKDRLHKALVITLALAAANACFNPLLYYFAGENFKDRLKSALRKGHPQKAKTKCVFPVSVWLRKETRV

[8] = molecular target: T1, COX-1 (Homo sapiens, UniProt P23219); assay: Cyclooxygenase COX-1 enzymatic activity; type: biochemical; conditions: Sf9 cells, read-out: CR6086 Activity at 10µM
T1 construct: host or cells: Sf9 cells

[9] = molecular target: β2 (Homo sapiens, UniProt P07550); assay: Adrenergic receptor β2 binding; conditions: [^3H](-)CGP 12177, Human recombinant CHO cells, read-out: CR6086 Activity at 10µM
Chain of β2 (P07550 whole entry): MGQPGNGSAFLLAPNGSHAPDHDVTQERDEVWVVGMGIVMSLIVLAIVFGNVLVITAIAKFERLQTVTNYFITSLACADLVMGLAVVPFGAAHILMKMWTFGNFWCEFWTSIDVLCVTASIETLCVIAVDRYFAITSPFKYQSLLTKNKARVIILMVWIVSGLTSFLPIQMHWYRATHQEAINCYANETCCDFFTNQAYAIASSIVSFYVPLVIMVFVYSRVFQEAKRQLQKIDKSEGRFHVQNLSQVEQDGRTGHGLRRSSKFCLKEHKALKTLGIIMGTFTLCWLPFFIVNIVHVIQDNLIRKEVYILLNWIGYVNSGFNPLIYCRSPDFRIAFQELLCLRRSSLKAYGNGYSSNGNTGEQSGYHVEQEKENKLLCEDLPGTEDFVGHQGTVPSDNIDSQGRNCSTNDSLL

[10] = molecular target: 5-HT7 (Homo sapiens, UniProt P34969); assay: Serotonin receptor 5-HT7 binding; conditions: [^3H]LSD, Human recombinant CHO cells, read-out: CR6086 Activity at 10µM
Chain of 5-HT7 (P34969 whole entry): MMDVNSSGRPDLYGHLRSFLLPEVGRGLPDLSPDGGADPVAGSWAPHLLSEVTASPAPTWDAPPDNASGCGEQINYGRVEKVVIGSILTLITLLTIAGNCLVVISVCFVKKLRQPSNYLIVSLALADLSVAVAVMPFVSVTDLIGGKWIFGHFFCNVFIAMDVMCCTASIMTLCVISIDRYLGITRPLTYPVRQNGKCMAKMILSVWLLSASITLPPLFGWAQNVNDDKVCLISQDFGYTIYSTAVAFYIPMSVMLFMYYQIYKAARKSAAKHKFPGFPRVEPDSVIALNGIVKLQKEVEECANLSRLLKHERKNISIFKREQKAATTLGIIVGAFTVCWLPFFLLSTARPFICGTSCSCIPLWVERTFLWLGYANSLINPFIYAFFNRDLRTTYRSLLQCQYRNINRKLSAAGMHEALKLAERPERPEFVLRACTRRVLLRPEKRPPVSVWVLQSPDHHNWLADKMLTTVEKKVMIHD

[11] = system: P2X; assay: Purinergic receptor P2X binding; conditions: [^3H]α,β-MeATP, Rat urinary bladder
[12] = molecular target: IP (PGI2) (Homo sapiens, UniProt P43119); assay: Eicosanoid receptor IP binding; conditions: [^3H]iloprost, HEK-293 cells, read-out: CR6086 Activity at 10µM
Chain of IP (PGI2) (P43119 whole entry): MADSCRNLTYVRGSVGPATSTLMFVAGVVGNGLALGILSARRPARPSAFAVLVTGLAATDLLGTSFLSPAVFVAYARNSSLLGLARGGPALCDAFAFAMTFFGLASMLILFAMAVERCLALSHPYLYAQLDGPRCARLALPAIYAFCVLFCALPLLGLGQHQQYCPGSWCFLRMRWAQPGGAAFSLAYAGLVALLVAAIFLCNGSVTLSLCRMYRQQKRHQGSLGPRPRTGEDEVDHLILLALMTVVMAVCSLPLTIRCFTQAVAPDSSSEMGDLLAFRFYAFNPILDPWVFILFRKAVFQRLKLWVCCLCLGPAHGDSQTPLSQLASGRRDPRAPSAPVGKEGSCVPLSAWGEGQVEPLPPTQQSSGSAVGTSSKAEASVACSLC

[13] = CR6086 pharmacokinetics in rats; type: in vivo, rat; conditions: for Cmax / AUC / Tmax: rat, plasma, oral; for AUC: read-out: AUC24; for Tmax: median
Procedure: CR6086 concentrations in rat plasma were determined by high-performance liquid chromatography (Agilent 1200 series; Agilent Technologies, Santa Clara, CA, USA) coupled with a triple-quadrupole mass spectrometer (API 4000 QTRAP; SCIEX, Concord, ON, Canada). A ZORBAX SB-C18 2.0 × 50-mm, 3.5-μm column (Agilent Technologies) in isocratic conditions was used with mobile phase 0.1% formic acid in water/acetonitrile (68:32 vol/vol). The method was linear within the dynamic range 1.0–10,000 ng/ml (lower to upper limit of quantification). CR6086 plasma protein binding was determined in the 0.2–200 μM concentration range using [^14C]CR6086 and equilibrium dialysis. EP4 receptor occupancy (RO) was calculated on the basis of CR6086 concentrations according to the following formula: RO%=Cave/Cave+Ki×100,
The pharmacokinetics of CR6086 were investigated in the animal species used as rheumatoid arthritis models, employing the same administration route and dose range. […] Therefore, for ethical reasons, all pharmacokinetic experiments were conducted in naive animals.

[14] = molecular target: D4,4 (Homo sapiens, UniProt P21917); assay: Dopamine receptor D4,4 binding; conditions: [^3H]methyl-spiperone, Human recombinant CHO cells, read-out: CR6086 Activity at 10µM
Chain of D4,4 (P21917 whole entry): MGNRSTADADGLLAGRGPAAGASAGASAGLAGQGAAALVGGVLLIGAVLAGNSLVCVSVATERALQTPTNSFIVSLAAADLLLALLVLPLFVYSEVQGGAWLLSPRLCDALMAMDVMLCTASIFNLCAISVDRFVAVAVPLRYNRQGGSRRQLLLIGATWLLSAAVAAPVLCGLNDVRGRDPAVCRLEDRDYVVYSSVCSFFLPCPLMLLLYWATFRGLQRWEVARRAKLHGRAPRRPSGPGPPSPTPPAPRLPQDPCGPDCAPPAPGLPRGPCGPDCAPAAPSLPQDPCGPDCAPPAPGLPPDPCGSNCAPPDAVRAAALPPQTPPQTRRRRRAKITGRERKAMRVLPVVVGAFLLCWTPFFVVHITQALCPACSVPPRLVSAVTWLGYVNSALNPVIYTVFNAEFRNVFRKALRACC

[15] = system: TNF-α; assay: TNF-α receptor binding; conditions: [^125I]TNF-α, U-937 cells
[16] = molecular target: 5-HT2A (Homo sapiens, UniProt P28223); assay: Serotonin receptor 5-HT2A binding; conditions: [^3H]ketanserin, Human recombinant HEK-293 cells, read-out: CR6086 Activity at 10µM
Chain of 5-HT2A (P28223 whole entry): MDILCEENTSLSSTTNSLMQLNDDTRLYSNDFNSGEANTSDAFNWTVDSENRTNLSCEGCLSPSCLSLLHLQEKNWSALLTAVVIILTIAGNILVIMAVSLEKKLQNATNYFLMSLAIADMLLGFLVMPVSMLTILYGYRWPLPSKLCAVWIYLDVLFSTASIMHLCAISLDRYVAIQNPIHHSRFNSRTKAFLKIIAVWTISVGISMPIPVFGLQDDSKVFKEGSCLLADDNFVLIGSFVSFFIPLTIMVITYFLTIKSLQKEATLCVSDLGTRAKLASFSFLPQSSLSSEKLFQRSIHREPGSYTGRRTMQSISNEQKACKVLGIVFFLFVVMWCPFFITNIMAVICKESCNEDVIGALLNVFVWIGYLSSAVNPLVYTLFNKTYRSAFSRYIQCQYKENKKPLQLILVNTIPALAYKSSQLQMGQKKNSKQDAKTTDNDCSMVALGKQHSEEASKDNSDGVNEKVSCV

[17] = molecular target: δ2 (DOP) (Homo sapiens, UniProt P41143); assay: Opioid receptor δ2 (DOP) binding; conditions: [^3H]DADLE, Human recombinant CHO cells, read-out: CR6086 Activity at 10µM
Chain of δ2 (DOP) (P41143 whole entry): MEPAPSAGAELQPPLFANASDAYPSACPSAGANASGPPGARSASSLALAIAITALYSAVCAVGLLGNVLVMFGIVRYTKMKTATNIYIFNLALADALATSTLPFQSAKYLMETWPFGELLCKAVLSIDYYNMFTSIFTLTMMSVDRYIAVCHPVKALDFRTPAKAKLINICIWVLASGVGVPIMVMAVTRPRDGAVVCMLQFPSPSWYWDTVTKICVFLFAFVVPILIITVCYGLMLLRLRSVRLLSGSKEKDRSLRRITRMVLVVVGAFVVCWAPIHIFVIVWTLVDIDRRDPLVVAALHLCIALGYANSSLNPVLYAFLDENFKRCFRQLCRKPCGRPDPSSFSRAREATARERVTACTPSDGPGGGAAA

SMILES: O=C([O-])c1ccc(C2(NC(=O)[C@H]3CC4(CCN3Cc3ccc(C(F)(F)F)cc3)CC4)CC2)cc1.[Na+] [CR6086, Sodium (R)-4-(1-(6-(4-(trifluoromethyl)benzyl)-6-azaspiro[2.5]octane-5-carboxamido)cyclopropyl)benzoate]
- inhibition at 10 µM [1]: < 20%
- inhibition at 10 µM [2]: < 20%
- inhibition at 10 µM [3]: < 20%
- inhibition at 10 µM [4]: < 20%
- CR6086 Activity at 10µM [5]: IN (IN = < 20% displacement or inhibition (all tables))
- inhibition at 10 µM [6]: < 20%
- inhibition at 10 µM [7]: < 20%
- inhibition at 10 µM [8]: < 20%
- inhibition at 10 µM [9]: < 20%
- inhibition at 10 µM [10]: < 20%
- CR6086 Activity at 10µM [11]: IN (IN = < 20% displacement or inhibition (all tables))
- inhibition at 10 µM [12]: < 20%
- unbound Cave ([13]; 3 mg/kg, 24-h dosing interval, single dose): 0.0276 µg/mL
- unbound Cave adjusted for the accumulation ratio ([13]; 3 mg/kg, repeated doses): 0.0328 µg/mL
- dose linearity of pharmacokinetics ([13]; 1–30 mg/kg oral): linear pharmacokinetics
- oral absorption ([13]; 1–30 mg/kg oral): rapidly and completely absorbed
- accumulation ratio after repeated doses ([13]; male rats): 1.19
- Cmax ([13]; 1 mg/kg): 1.25 ± 0.067 µg/mL
- AUC ([13]; 1 mg/kg, AUC4 for the dose of 1 mg/kg): 2.17 ± 0.338 µg·h/mL
- Tmax ([13]; 1 mg/kg): 15 min
- Cmax ([13]; 3 mg/kg): 3.23 ± 0.173 µg/mL
- Tmax ([13]; 3 mg/kg): 15 min
- AUC ([13]; 3 mg/kg): 13.7 ± 3.99 µg·h/mL
- Cmax ([13]; 10 mg/kg): 14.5 ± 3.4 µg/mL
- Tmax ([13]; 10 mg/kg): 30 min
- AUC ([13]; 10 mg/kg): 58 ± 6.73 µg·h/mL
- Cmax ([13]; 15 mg/kg): 11.9 ± 2.04 µg/mL
- Tmax ([13]; 15 mg/kg): 30 min
- AUC ([13]; 15 mg/kg): 61.6 ± 10.6 µg·h/mL
- Cmax ([13]; 30 mg/kg): 34.5 ± 6.4 µg/mL
- Tmax ([13]; 30 mg/kg): 60 min
- AUC ([13]; 30 mg/kg): 206 ± 46 µg·h/mL
- inhibition at 10 µM [14]: < 20%
- CR6086 Activity at 10µM [15]: IN (IN = < 20% displacement or inhibition (all tables))
- inhibition at 10 µM [16]: < 20%
- inhibition at 10 µM [17]: < 20%
